system: carbonyl reductase IsADH1; assay: Substrate specificity of IsADH1: carbonyl reductase activity by NADPH consumption (absorbance at 340 nm); type: biochemical, Issatchankia scutulata var. scutulata JCM1828 strain; parameters: key: —: Activity cannot be detected; Trace: a slight level of activity is detected; conditions: purified carbonyl reductase, 2 mM substrate, 0.32 mM NADPH, 100 mM Tris-HCl (pH 7.5), 37° C.; activity to 1-acetoxy-3-chloro-2-propanone defined as 100
Method: The Issatchankia scutulata var. scutulata JCM1828 strain was cultured in 2 L of a medium (80 g of glucose, 20 g of yeast extract (manufactured by Difco), and 40 g/L peptone (manufactured by Kyokuto Pharmaceutical Industrial Co., Ltd.)), and a cell mass was then prepared by centrifugation. 150 g of the obtained wet cell mass was suspended in 10 mM potassium phosphate buffer (pH 7) and 0.1 mM DTT (hereinafter simply referred to as a “buffer”), and it was then crushed with DYNO-MILL KDL (manufactured by Shimaru Enterprises Corp.). Thereafter, the cell mass residue was eliminated by centrifugation, so as to obtain a cell-free extract. Thereafter, PEG6000 was added to the cell-free extract to a concentration of 90 g/L, and the obtained mixture was then left at rest at 4° C. for 1 hour. Thereafter, the precipitate was eliminated by centrifugation. The obtained supernatant was then subjected to anion exchange chromatography using DEAE Sepharose Fast Flow (manufactured by Amersham Biosciences), hydrophobic interaction chromatography using Butyl Sepharose 4 Fast Flow (manufactured by Amersham Biosciences), anion exchange chromatography using MonoQ (manufactured by Amersham Biosciences), and Gel filtration chromatography using Superdex 200 (manufactured by Amersham Biosciences), so that carbonyl reductase of interest could be purified to a single band in electrophoresis.
During purification, the activity of carbonyl reductase was measured by reacting the reaction solution containing an enzyme solution (100 mM Tris-HCl (pH 7.5), 0.32 mM NADPH, and 2 mM 1-acetoxy-3-chloro-2-propanone) at 37° C. and then calculating the amount of NADPH consumed based on a decrease in the absorbance at 340 nm. For the measurement of the absorbance, SPECTRAmax 190 (manufactured by Molecular Devices) was used. It is to be noted that the activity necessary for consuming 1 nmol of NADPH for 1 minute in the aforementioned reaction was defined as 1 U.
With regard to various carbonyl compounds, a reaction solution (100 mM Tris-HCl (pH 7.5), 0.32 mM NADPH, and a 2 mM substrate) containing the carbonyl reductase solution purified in (2) above was prepared, and it was reacted at 37° C. The amount of NADPH consumed in the reaction solution was monitored based on the absorbance at 340 nm, so as to measure carbonyl reductase activity to each compound. For the measurement of the absorbance, SPECTRAmax 190 (manufactured by Molecular Devices) was used. The relative activity of carbonyl reductase to each substrate compound obtained when carbonyl reductase activity to 1-acetoxy-3-chloro-2-propanone was defined as 100 is shown in Table 4.

SMILES | Relative activity
CC(=O)OCC(=O)CCl [1-acetoxy-3-chloro-2-propanone] | 100
O=C(c1ccccc1)C(F)(F)F [2,2,2-trifluoroacetophenone] | 53.8
CCC(=O)C(C)=O [2,3-pentadione] | Trace
O=C1CC2CCC1C2 (centres unmarked) [2-norbornanone] | —
CCC(=O)c1cccnc1 [3-propionylpyridine] | 11.2
O=C1CN2CCC1CC2 [3-quinuclidinone] | Trace
CC(=O)C(C)O (centres unmarked) [Acetoin] | —
CC(=O)c1ccccc1 [Acetophenone] | —
CC(=O)C(C)=O [Diacetyl] | —
CCOC(=O)C(=O)C(C)C [Ethyl 3-methyl-2-oxobutylate] | Trace
CCOC(=O)CC(C)=O [Ethyl 3-oxobutyrate] | 25.5
CCOC(=O)CC(=O)CCl [Ethyl 4-chloro-3-oxobutyrate] | 212
CCOC(=O)CC(=O)c1ccccc1 [Ethyl benzoylacetate] | Trace
CCOC(=O)CC(=O)c1cccnc1 [Ethyl nicotinoylacetate] | 20.7
CCOC(=O)C(C)=O [Ethyl pyruvate] | Trace
CC(=O)COc1ccccc1 [Phenoxyacetone] | —
O=C(O)C(=O)Cc1ccccc1 [Phenylpyruvic acid] | 12.2
CCC(=O)c1ccccc1 [Propiophenone] | Trace
O=Cc1ccc(Cl)cc1 [p-chlorobenzaldehyde] | 58.0
O=Cc1ccc(O)cc1 [p-hydroxybenzaldehyde] | —

— patent US20080233621A1, “Method For Producing Alcohol and Carboxylic Acid Having Optical Activity” (API Corporation, priority 2004, published 2008)
